Assay results published in PubChem BioAssay AID2740 (NMMLSC, 2010).
Active and inactive are the calls of the source.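 The calls were made as follows: active = compounds whose fitted half-maximal concentration for changing the GFP signal is at or below a set limit; inactive = the rest.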

Experiment: TOR pathway RPL19A-GFP modulators, concentration series – cell-based, S. cerevisiae, flow cytometry, MLPCN hits, dose response (AID 2740);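 also: background is signal of the same compound in parental non-GFP s288c yeast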
Conditions: S. cerevisiae RPL19A-GFP strain, flow cytometry fluorescence, 3 h; at 33 µM (top of the series)

Row | Structure (SMILES) | GFP fluorescence, lower = active (kMESF (background-subtracted))
1 | O=S(=O)(/N=C(\Sc1ccc(Cl)cc1)c1ccccc1)c1ccccc1 | 33.6 (inactive)
2 | O=C(c1ccccn1)c1conc1C(=O)c1ccc(Br)cc1 | 38.5 (inactive)
3 | Cc1ccc2nc(/C(C#N)=C/c3ccc(O)c(O)c3)[nH]c2c1 | 43.8 (inactive)
4 | COc1ccc([N+](=O)[O-])c(S(=O)(=O)c2ccccc2)n1 | 39.1 (inactive)
5 | C[n+]1ccc(/C=C/c2c[nH]c3ccccc23)cc1 | 53.8 (inactive)
6 | O=c1c2cc(Cl)ccc2nc(-c2ccc([N+](=O)[O-])cc2)n1O | 14 (inactive)
7 | COc1ccc(/C=C/C(=O)NC(=S)NNC(=O)c2cnccn2)cc1 | 49.2 (inactive)
8 | Oc1ccc2ccccc2c1/C=N/Nc1nnc(-c2ncc[nH]2)c2ccccc12 | 4.23 (inactive)
9 | O=C(/C=C/c1cc(Br)ccc1O)c1ccco1 | 33.5 (inactive)
10 | O=C1C(Cl)=C(Nc2ccccc2O)C(=O)N1CCc1ccccc1 | 42.1 (inactive)
11 | Cc1ccc(C(=O)/C=C/C(=O)c2ccc(C)cc2)cc1 | 47.5 (inactive)
12 | O=C1C(=O)c2ccccc2-c2ccccc21 | 17.7 (inactive)
13 | COc1ccc(C(=O)NC(=S)NNC(=O)c2cnccn2)cc1 | 35.4 (inactive)
14 | O=C1C=CC(=O)N1N(c1ccccc1)c1ccccc1 | 23.9 (inactive)
15 | Cc1ccc(C(=O)Oc2oc(-c3ccco3)nc2C=Nc2ccc(Cl)cc2)cc1 | 40.8 (inactive)
16 | COc1cccc(/C=C/C(=O)c2c(O)cc(C)oc2=O)c1O | 40.4 (inactive)
17 | COc1ccc(N2C(=O)C(Cl)=C(Oc3cccc(OC)c3)C2=O)cc1 | 45.6 (inactive)

Row | Structure (SMILES) | GFP fluorescence, lower = active (kMESF (background-subtracted))
18 | O=C1Nc2ccccc2/C1=C\C(=O)c1ccccc1 | 34.2 (inactive)
19 | Cc1[nH]n(-c2ncc(-c3ccccc3)s2)c(=O)c1C(c1ccc(Cl)cc1)C(C#N)C#N (stereo not drawn) | 42 (inactive)
20 | COc1cccc(C(=O)Nc2nnc(-c3ccc(Cl)cc3)o2)c1 | 35.5 (inactive)
21 | CC(=O)N(C(C)=O)c1ncnc2c1c(-c1ccc(Cl)cc1)nn2C(C)(C)C | 42.9 (inactive)
22 | COc1ccc(C2=CC(=O)N(Nc3ccccc3)C2=O)cc1 | 34.6 (inactive)
23 | O=C(NCc1ccc2c(c1)OCO2)c1nc(S(=O)(=O)Cc2ccccc2)ncc1Cl | 43.5 (inactive)
24 | O=C(/C=C/c1ccc(Br)cc1)NC(=S)NNC(=O)c1ccco1 | 50.2 (inactive)
25 | Cc1ccccc1C(=O)NNC(=S)NC(=O)c1ccc(Cl)cc1Cl | 45.9 (inactive)
26 | CCSc1nnc(NC(=O)c2ccccn2)s1 | 50 (inactive)
27 | O=C1C(Cl)=C(Nc2ccccc2O)C(=O)N1c1ccccc1 | 43.6 (inactive)
28 | O=C(CCS(=O)(=O)c1ccccc1)Nc1nc(-c2ccccn2)cs1 | 37.8 (inactive)
29 | O=C(NC(=S)NNC(=O)c1ccc(Cl)cc1Cl)c1cccnc1 | 18.7 (inactive)
30 | CCN(CC)C(=O)Oc1ccnc2cc(Cl)ccc12 | 41.8 (inactive)
31 | Cc1cc(C(=O)Nc2nc(-c3ccccn3)cs2)ccc1[N+](=O)[O-] | 48.9 (inactive)
32 | Cc1ccc(N=Nc2ccc(O)c3ncccc23)cc1 | 39.8 (inactive)
33 | COc1ccc(C(=O)NC(=S)NNC(=O)c2cnccn2)cc1OC | 38.6 (inactive)
